Test results from article PMC8550792, “Evolution of kinase polypharmacology across HSP90 drug discovery” (Cell Chemical Biology, 2021).
Where two headings read alike, the source gives them in different places.

Assays:
Test in all cases: biochemical
Assay type in all cases: biochemical
382 unique human kinases [1] = target: T1, 382 unique human kinases (Homo sapiens, UniProt P07949, L790F); details: RET (L790F), 10 uM; for remaining activity at 10 µM: read-out: % Enzyme Activity (relative to DMSO controls)
T1 construct: purchased Reaction Biology (HotSpot contract assay)

382 unique human kinases [2] = target: T2, 382 unique human kinases (Homo sapiens, UniProt P07949, Y806H); details: RET (Y806H), 10 uM; for remaining activity at 10 µM: read-out: % Enzyme Activity (relative to DMSO controls)
T2 construct: purchased Reaction Biology (HotSpot contract assay)

382 unique human kinases [3] = target: T3, 382 unique human kinases (Homo sapiens, UniProt P08581, F1200I); details: kinase c-MET (F1200I), compound 10 uM; for remaining activity at 10 µM: read-out: % Enzyme Activity (relative to DMSO controls)
T3 construct: purchased Reaction Biology (HotSpot contract assay)

382 unique human kinases [4] = target: T4, 382 unique human kinases (Homo sapiens, UniProt Q00535); details: for remaining activity at 10 µM: read-out: % Enzyme Activity (relative to DMSO controls)
T4 construct: purchased Reaction Biology (HotSpot contract assay)

382 unique human kinases [5] = target: T5, 382 unique human kinases (Homo sapiens, UniProt Q6DT37); details: DMPK2, 10 uM; for remaining activity at 10 µM: read-out: % Enzyme Activity (relative to DMSO controls)
T5 construct: purchased Reaction Biology (HotSpot contract assay)

382 unique human kinases [6] = target: T6, 382 unique human kinases (Homo sapiens, UniProt Q9Y5S2); details: MRCKb/CDC42BPB, 10 uM; for remaining activity at 10 µM: read-out: % Enzyme Activity (relative to DMSO controls)
T6 construct: purchased Reaction Biology (HotSpot contract assay)

382 unique human kinases [7] = target: T7, 382 unique human kinases (Homo sapiens, UniProt P00519, Y253H); details: ABL1 (Y253H), [ATP] 10 µM, compound 10 uM; for remaining activity at 10 µM: read-out: % Enzyme Activity (relative to DMSO controls)
T7 construct: purchased Reaction Biology (HotSpot contract assay)

382 unique human kinases [8] = target: T8, 382 unique human kinases (Homo sapiens, UniProt P00533, DEL746-750); details: EGFR (d746-750), 10 uM; for remaining activity at 10 µM: read-out: % Enzyme Activity (relative to DMSO controls)
T8 construct: purchased Reaction Biology (HotSpot contract assay)

382 unique human kinases [9] = target: T9, 382 unique human kinases (Homo sapiens, UniProt P07949, Y791F); details: [ATP] 15 µM, compound 10 uM, read-out: % Enzyme Activity (relative to DMSO controls)
T9 construct: purchased Reaction Biology (HotSpot contract assay)

382 unique human kinases [10] = target: T10, 382 unique human kinases (Homo sapiens, UniProt P08581, M1250T); details: c-MET (M1250T), 10 uM; for remaining activity at 10 µM: read-out: % Enzyme Activity (relative to DMSO controls)
T10 construct: purchased Reaction Biology (HotSpot contract assay)

382 unique human kinases [11] = target: T11, 382 unique human kinases (Homo sapiens, UniProt P10721, D816V/V560G); details: c-Kit (V560G/D816V), [ATP] 20 µM, compound 10 uM; for remaining activity at 10 µM: read-out: % Enzyme Activity (relative to DMSO controls)
T11 construct: purchased Reaction Biology (HotSpot contract assay)

382 unique human kinases [12] = target: T12, 382 unique human kinases (Homo sapiens, UniProt P17252); details: PKCa, 10 uM; for remaining activity at 10 µM: read-out: % Enzyme Activity (relative to DMSO controls)
T12 construct: purchased Reaction Biology (HotSpot contract assay)

382 unique human kinases [13] = target: T13, 382 unique human kinases (Homo sapiens, UniProt P42681); details: TXK, [ATP] 30 µM, compound 10 uM; for remaining activity at 10 µM: read-out: % Enzyme Activity (relative to DMSO controls)
T13 construct: purchased Reaction Biology (HotSpot contract assay)
T13 sequence (P42681 1-527): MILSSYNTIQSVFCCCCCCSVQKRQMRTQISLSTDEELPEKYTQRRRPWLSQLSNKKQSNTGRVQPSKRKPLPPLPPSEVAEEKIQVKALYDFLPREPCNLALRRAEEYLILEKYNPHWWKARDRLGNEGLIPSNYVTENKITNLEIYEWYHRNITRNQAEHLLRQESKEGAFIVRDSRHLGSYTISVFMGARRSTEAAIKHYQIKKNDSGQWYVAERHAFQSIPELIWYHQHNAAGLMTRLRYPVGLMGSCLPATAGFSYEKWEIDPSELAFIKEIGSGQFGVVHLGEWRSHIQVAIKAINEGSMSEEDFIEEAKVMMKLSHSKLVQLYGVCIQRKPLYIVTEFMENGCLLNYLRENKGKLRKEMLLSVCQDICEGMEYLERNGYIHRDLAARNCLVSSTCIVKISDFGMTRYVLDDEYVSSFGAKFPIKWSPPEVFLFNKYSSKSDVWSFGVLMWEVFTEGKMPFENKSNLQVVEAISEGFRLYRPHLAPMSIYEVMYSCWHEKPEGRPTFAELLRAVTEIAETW

382 unique human kinases [14] = target: T14, 382 unique human kinases (Homo sapiens, UniProt Q08881); details: ITK, 10 uM; for remaining activity at 10 µM: read-out: % Enzyme Activity (relative to DMSO controls)
T14 construct: purchased Reaction Biology (HotSpot contract assay)
T14 sequence (Q08881 1-620): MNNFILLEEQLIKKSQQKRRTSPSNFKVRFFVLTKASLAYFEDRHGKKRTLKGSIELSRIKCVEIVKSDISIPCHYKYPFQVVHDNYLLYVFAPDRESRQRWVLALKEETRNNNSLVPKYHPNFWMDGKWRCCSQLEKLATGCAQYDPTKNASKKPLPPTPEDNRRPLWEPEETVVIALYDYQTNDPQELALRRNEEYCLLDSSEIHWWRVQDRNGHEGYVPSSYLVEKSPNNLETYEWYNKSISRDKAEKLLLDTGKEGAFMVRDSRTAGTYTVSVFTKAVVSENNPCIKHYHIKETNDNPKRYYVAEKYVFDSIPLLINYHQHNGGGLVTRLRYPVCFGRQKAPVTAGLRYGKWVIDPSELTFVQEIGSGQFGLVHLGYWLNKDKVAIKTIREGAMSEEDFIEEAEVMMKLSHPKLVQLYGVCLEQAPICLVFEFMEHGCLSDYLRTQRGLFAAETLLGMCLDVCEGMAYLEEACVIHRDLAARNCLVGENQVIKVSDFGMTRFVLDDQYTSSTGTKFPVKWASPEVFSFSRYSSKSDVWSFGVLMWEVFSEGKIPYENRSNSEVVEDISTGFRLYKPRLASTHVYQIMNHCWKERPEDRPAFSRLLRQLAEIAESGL

382 unique human kinases [15] = target: T15, 382 unique human kinases (Homo sapiens, UniProt Q15746); details: MLCK/MYLK, [ATP] 30 µM, compound 10 uM; for remaining activity at 10 µM: read-out: % Enzyme Activity (relative to DMSO controls)
T15 construct: purchased Reaction Biology (HotSpot contract assay)

382 unique human kinases [16] = target: T16, 382 unique human kinases (Homo sapiens, UniProt Q16513); details: PKN2/PRK2, 10 uM; for remaining activity at 10 µM: read-out: % Enzyme Activity (relative to DMSO controls)
T16 construct: purchased Reaction Biology (HotSpot contract assay)

382 unique human kinases [17] = target: T17, 382 unique human kinases (Homo sapiens, UniProt Q5S007, I2020T); details: LRRK2 (I2020T), [ATP] 10 µM, compound 10 uM; for remaining activity at 10 µM: read-out: % Enzyme Activity (relative to DMSO controls)
T17 construct: purchased Reaction Biology (HotSpot contract assay)

[18] = kinase CDK5/p25, compound 10 uM

T7 sequence (P00519 whole entry Y253H): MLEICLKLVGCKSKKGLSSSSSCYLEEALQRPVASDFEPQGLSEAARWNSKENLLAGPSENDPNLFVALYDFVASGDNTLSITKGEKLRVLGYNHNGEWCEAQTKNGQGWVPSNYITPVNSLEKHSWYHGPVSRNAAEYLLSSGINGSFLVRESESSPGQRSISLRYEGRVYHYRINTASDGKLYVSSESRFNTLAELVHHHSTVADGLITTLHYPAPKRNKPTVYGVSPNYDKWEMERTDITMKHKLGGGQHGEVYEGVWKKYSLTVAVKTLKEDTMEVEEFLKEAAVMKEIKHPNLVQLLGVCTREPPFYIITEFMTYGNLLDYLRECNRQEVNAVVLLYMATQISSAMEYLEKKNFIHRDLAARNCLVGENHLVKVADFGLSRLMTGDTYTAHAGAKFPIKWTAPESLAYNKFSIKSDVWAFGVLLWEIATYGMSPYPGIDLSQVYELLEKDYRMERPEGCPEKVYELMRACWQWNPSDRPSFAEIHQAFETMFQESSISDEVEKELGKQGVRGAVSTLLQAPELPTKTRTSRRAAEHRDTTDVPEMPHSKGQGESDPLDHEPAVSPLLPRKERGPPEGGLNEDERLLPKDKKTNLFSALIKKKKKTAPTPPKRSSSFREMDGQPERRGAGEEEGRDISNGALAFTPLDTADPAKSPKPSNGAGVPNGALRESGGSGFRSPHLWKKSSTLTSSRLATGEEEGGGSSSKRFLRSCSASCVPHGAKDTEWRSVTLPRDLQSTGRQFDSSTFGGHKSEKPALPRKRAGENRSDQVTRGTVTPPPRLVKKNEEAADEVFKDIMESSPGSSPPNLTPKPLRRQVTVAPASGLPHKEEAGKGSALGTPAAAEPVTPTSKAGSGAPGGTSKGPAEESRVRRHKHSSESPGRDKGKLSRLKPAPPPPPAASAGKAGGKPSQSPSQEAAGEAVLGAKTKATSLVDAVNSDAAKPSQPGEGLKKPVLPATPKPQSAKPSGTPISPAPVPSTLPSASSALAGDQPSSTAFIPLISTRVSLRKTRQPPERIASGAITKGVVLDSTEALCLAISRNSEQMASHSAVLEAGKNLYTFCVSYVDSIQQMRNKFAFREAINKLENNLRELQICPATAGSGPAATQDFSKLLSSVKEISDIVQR
T17 sequence (Q5S007 whole entry I2020T): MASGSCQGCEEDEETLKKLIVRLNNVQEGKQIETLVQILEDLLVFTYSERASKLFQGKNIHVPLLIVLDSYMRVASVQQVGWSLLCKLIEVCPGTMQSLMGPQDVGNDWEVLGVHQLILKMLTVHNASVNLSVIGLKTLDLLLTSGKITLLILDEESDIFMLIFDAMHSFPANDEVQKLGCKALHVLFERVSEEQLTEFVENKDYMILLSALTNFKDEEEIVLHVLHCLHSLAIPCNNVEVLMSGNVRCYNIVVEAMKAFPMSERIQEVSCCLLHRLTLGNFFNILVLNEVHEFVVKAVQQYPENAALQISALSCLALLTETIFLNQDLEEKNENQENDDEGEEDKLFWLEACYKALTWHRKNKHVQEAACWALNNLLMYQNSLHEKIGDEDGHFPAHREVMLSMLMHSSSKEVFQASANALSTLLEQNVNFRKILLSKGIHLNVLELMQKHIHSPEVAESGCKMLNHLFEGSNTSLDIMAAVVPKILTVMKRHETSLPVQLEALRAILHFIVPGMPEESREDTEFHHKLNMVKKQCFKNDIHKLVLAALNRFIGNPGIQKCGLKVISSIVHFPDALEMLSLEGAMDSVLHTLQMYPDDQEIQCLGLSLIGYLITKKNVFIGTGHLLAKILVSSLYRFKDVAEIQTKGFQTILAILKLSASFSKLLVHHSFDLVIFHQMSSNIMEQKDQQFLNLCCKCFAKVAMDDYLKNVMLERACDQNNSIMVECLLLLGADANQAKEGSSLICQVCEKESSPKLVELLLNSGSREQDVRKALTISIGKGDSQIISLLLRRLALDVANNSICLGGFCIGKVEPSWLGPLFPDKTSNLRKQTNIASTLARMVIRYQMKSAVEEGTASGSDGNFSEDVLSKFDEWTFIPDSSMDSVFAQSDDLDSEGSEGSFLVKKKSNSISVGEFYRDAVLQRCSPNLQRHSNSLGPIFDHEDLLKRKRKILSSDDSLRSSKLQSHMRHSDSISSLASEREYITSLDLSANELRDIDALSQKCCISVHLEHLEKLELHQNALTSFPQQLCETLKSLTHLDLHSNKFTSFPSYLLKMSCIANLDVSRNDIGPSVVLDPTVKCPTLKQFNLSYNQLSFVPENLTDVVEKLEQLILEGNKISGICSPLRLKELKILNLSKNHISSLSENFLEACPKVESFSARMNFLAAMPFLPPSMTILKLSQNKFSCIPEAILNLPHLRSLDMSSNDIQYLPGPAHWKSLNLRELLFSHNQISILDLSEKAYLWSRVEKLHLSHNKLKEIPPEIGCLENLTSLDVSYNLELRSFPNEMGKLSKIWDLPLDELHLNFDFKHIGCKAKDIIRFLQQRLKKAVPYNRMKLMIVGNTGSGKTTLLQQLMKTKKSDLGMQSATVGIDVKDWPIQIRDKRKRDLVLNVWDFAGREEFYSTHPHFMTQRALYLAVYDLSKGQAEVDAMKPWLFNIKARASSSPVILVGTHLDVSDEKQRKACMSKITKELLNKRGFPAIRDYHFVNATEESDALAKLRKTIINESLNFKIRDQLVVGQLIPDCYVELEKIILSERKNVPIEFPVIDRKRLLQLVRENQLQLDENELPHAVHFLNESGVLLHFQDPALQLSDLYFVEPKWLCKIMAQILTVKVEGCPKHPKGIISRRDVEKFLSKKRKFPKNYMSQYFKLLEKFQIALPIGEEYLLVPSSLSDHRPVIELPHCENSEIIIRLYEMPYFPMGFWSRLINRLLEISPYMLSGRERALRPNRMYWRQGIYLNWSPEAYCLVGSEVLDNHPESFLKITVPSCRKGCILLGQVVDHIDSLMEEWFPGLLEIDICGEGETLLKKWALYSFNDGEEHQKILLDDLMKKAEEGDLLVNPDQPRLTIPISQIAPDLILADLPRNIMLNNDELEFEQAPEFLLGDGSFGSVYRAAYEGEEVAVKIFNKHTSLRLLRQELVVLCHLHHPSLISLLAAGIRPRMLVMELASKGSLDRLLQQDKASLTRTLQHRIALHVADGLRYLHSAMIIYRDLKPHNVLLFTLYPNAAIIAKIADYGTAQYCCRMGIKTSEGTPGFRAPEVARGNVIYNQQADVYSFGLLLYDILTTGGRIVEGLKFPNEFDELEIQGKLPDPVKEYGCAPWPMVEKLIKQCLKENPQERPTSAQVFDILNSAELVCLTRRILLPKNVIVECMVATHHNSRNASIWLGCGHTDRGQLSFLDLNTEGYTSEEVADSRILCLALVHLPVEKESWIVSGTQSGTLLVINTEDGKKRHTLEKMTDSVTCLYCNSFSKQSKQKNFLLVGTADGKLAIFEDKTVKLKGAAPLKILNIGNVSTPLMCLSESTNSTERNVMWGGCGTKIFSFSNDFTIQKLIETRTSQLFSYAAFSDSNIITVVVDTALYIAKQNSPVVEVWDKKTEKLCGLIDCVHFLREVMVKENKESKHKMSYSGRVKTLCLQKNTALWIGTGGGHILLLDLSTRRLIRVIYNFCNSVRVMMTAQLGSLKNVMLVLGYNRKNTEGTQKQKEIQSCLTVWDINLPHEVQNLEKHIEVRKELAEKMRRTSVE
T9 sequence (P07949 29-1114 Y791F): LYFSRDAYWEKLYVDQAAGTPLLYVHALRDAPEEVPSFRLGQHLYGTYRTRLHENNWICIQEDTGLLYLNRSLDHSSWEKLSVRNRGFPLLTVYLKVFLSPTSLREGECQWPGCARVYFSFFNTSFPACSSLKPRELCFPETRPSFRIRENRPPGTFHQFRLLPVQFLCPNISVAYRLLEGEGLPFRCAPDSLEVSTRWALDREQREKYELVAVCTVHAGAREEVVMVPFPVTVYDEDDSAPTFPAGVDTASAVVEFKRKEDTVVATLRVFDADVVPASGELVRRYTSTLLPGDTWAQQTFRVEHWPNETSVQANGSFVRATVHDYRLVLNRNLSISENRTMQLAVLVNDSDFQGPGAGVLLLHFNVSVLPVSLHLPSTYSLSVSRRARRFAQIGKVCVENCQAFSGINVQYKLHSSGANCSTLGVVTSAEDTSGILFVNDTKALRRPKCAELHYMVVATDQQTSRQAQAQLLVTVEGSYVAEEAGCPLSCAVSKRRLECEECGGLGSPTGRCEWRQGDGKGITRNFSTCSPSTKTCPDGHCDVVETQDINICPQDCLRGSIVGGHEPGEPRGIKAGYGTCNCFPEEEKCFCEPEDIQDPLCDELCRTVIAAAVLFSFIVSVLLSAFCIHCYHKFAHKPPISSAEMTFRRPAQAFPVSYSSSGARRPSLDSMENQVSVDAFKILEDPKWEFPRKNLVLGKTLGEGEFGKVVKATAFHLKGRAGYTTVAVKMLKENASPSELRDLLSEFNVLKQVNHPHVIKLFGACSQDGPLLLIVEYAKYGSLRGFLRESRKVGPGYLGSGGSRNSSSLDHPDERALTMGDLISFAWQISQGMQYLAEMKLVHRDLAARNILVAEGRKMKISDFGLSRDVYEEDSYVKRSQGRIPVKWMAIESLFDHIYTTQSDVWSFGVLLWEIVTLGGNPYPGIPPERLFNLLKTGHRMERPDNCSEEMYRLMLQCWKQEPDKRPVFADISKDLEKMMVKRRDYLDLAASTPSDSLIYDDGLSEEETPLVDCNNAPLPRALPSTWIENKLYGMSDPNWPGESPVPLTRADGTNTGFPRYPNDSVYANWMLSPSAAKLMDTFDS
T2 sequence (P07949 29-1114 Y806H): as the sequence (P07949 29-1114 Y791F) above, with F763Y, Y778H counted along it
T4 sequence (Q00535 whole entry): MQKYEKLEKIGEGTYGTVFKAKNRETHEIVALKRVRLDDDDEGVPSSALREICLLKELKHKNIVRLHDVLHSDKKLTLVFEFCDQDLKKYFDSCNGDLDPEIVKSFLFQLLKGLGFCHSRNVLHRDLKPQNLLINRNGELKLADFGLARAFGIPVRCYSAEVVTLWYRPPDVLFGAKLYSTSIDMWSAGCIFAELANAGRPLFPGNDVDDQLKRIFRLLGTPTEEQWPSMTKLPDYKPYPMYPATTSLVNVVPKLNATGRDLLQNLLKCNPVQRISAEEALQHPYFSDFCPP
T1 sequence (P07949 29-1114 L790F): as the sequence (P07949 29-1114 Y791F) above, with L762F, F763Y counted along it

SMILES: CC(C)c1cc(-c2n[nH]c(=O)n2-c2ccc3c(ccn3C)c2)c(O)cc1O [Ganetespib (STA9090)]
- remaining activity at 10 µM (382 unique human kinases [1]): 68.1%
- remaining activity at 10 µM (382 unique human kinases [2]): 78.2%
- remaining activity at 10 µM (382 unique human kinases [3]): 86.5%
- remaining activity at 10 µM (382 unique human kinases [4]; CDK5/p35, 10 uM): 70.1%
- remaining activity at 10 µM (382 unique human kinases [4]; [18]): 80.9%
- remaining activity at 10 µM (382 unique human kinases [5]): 75.6%
- remaining activity at 10 µM (382 unique human kinases [6]): 78.9%

SMILES: CC(C)c1cc(-c2n[nH]c(=O)n2-c2ccc3c(ccn3C)c2)c(O)cc1O [Ganetespib]
- remaining activity at 10 µM (382 unique human kinases [7]): 9.65%
- remaining activity at 10 µM (382 unique human kinases [8]): 91.8%
- remaining activity at 10 µM (382 unique human kinases [9]; RET (Y791F)): 60.9%
- remaining activity at 10 µM (382 unique human kinases [10]): 99.8%
- remaining activity at 10 µM (382 unique human kinases [11]): 24.3%
- remaining activity at 10 µM (382 unique human kinases [12]): 94.5%
- remaining activity at 10 µM (382 unique human kinases [13]): 21.4%
- remaining activity at 10 µM (382 unique human kinases [14]): 95.6%
- remaining activity at 10 µM (382 unique human kinases [15]): 38.6%
- remaining activity at 10 µM (382 unique human kinases [16]): 95.7%
- remaining activity at 10 µM (382 unique human kinases [17]): 39%

SMILES: CCNC(=O)c1noc(-c2cc(C(C)C)c(O)cc2O)c1-c1ccc(CN2CCOCC2)cc1 [Luminespib (AUY-922)]
- % Enzyme Activity (relative to DMSO controls) (382 unique human kinases [1]): 91.09%
- remaining activity at 10 µM (382 unique human kinases [1]): 91.5%
- % Enzyme Activity (relative to DMSO controls) (382 unique human kinases [2]): 88.98%
- remaining activity at 10 µM (382 unique human kinases [2]): 89.6%
- % Enzyme Activity (relative to DMSO controls) (382 unique human kinases [3]): 100.14%
- remaining activity at 10 µM (382 unique human kinases [3]): 100%
- % Enzyme Activity (relative to DMSO controls) (382 unique human kinases [4]; CDK5/p35, 10 uM): 102.70%
- remaining activity at 10 µM (382 unique human kinases [4]; CDK5/p35, 10 uM): 103%
- % Enzyme Activity (relative to DMSO controls) (382 unique human kinases [4]; [18]): 102.12%
- remaining activity at 10 µM (382 unique human kinases [4]; [18]): 102%
- % Enzyme Activity (relative to DMSO controls) (382 unique human kinases [5]): 113.14%
- remaining activity at 10 µM (382 unique human kinases [5]): 114%
- % Enzyme Activity (relative to DMSO controls) (382 unique human kinases [6]): 103.51%
- remaining activity at 10 µM (382 unique human kinases [6]): 111%

SMILES: CCNC(=O)c1noc(-c2cc(C(C)C)c(O)cc2O)c1-c1ccc(CN2CCOCC2)cc1 [Luminespib]
- % Enzyme Activity (relative to DMSO controls) (382 unique human kinases [7]): 6.34%
- remaining activity at 10 µM (382 unique human kinases [7]): 6.94%
- % Enzyme Activity (relative to DMSO controls) (382 unique human kinases [8]): 93.74%
- remaining activity at 10 µM (382 unique human kinases [8]): 94%
- remaining activity at 10 µM (382 unique human kinases [9]; RET (Y791F)): 100%
- remaining activity at 10 µM (382 unique human kinases [9]; […]): 99.9%
- % Enzyme Activity (relative to DMSO controls) (382 unique human kinases [10]): 112.05%
- remaining activity at 10 µM (382 unique human kinases [10]): 113%
- % Enzyme Activity (relative to DMSO controls) (382 unique human kinases [11]): 61.63%
- remaining activity at 10 µM (382 unique human kinases [11]): 61.7%
- % Enzyme Activity (relative to DMSO controls) (382 unique human kinases [12]): 92.02%
- remaining activity at 10 µM (382 unique human kinases [12]): 94%
- % Enzyme Activity (relative to DMSO controls) (382 unique human kinases [13]): 87.82%
- remaining activity at 10 µM (382 unique human kinases [13]): 88.1%
- % Enzyme Activity (relative to DMSO controls) (382 unique human kinases [14]): 92.96%
- remaining activity at 10 µM (382 unique human kinases [14]): 94.1%
- % Enzyme Activity (relative to DMSO controls) (382 unique human kinases [15]): 95.43%
- remaining activity at 10 µM (382 unique human kinases [15]): 97.5%
- % Enzyme Activity (relative to DMSO controls) (382 unique human kinases [16]): 98.60%
- remaining activity at 10 µM (382 unique human kinases [16]): 99.3%
- % Enzyme Activity (relative to DMSO controls) (382 unique human kinases [17]): 86.48%
- remaining activity at 10 µM (382 unique human kinases [17]): 86.5%
